Test results published in patent US10328053B2 (Gilead Sciences, Inc., priority 2016, dated 2019).

These compounds were tested on HBV AD38 viral particles in HepG2 cell line overexpressing NTCP (assay: HBV DNA Quantification Assay). Details: Hepatitis B virus, HepG2, 120 h, HBV-infected HepG2-NTCP cells, 5 days incubation, HBV DNA in culture supernatant (QuantiGene 2.0); geometric mean of a minimum of four determinations.
Format: cell-based
Summary of the method: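 Antiviral EC50 derived by four-parameter dose-response fit and given as geometric mean of at least four runs. Read-out was branched-DNA (QuantiGene 2.0) luminescence for HBV DNA in culture supernatant after 5 days of compound exposure. Cells: HepG2-NTCP infected 4 days beforehand with AD38 particles, 4000 genome equivalents per cell.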

| SMILES | EC50 |
| --- | --- |
| CNC(=O)C1(NC(=O)C(=O)c2c(C)c(C(=O)Nc3ccc(F)c(C#N)c3)n3c2CCC3)CC(F)(F)C1 [Example 35, N-(3-cyano-4-fluorophenyl)-7-(2-((3,3-difluoro-1-(methylcarbamoyl)cyclobutyl)amino)-2-oxoacetyl)-6-methyl-2,3-dihydro-1H-pyrrolizine-5-carboxamide] | 0.109 µM |
| CNC(=O)C1(NC(=O)C(=O)c2c(C)c(C(=O)Nc3ccc(F)c(F)c3)n3c2CCC3)CC(F)(F)C1 [Example 44, 7-(2-((3,3-difluoro-1-(methylcarbamoyl)cyclobutyl)amino)-2-oxoacetyl)-N-(3,4-difluorophenyl)-6-methyl-2,3-dihydro-1H-pyrrolizine-5-carboxamide] | 0.031 µM |

The compounds below were run on pooled cryopreserved hepatocytes (assay: Hepatic Stability Assay (in vitro half-life method)). Details: 37° C., 1×10^6 cells/mL, 0-6 hours, LC-MS/MS, 39.5 hours is the maximum detectable half life.
Format: in vitro ADME
Set-up: dose or concentration left out as unconfirmed
Summary of the method: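 Pooled cryopreserved hepatocytes (1×10^6 cells/mL) incubated with compound at […] test concentration, 37° C.; samples at 0, 1, 3 and 6 h quantified by LC-MS/MS. Half-life from rate of compound disappearance, scaled to predicted hepatic clearance via well-stirred model.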

| SMILES | t½ |
| --- | --- |
| CNC(=O)C1(NC(=O)C(=O)c2c(C)c(C(=O)Nc3ccc(F)c(C#N)c3)n3c2CCC3)CC(F)(F)C1 [Example 35, N-(3-cyano-4-fluorophenyl)-7-(2-((3,3-difluoro-1-(methylcarbamoyl)cyclobutyl)amino)-2-oxoacetyl)-6-methyl-2,3-dihydro-1H-pyrrolizine-5-carboxamide] | 39.5 h |
| CNC(=O)C1(NC(=O)C(=O)c2c(C)c(C(=O)Nc3ccc(F)c(Cl)c3)n3c2CCC3C)CC(F)(F)C1 (single isomer, unassigned) [Example 22, N-(3-chloro-4-fluorophenyl)-7-(2-((3,3-difluoro-1-(methylcarbamoyl)cyclobutyl)amino)-2-oxoacetyl)-3,6-dimethyl-2,3-dihydro-1H-pyrrolizine-5-carboxamide] | 2.7 h |
| Cc1c(C(=O)C(=O)NC2(C)CS(=O)(=O)C2)c2n(c1C(=O)Nc1ccc(F)c(C#N)c1)[C@@H]1C[C@@H]1C2 [Example 72, (1aR,6aR)—N-(3-cyano-4-fluorophenyl)-4-methyl-5-(2-((3-methyl-1,1-dioxidothietan-3-yl)amino)-2-oxoacetyl)-1,1a,6,6a-tetrahydrocyclopropa[b]pyrrolizine-3-carboxamide] | 39.5 h |
| CNC(=O)C1(NC(=O)C(=O)c2c(C)c(C(=O)Nc3ccc(F)c(C(F)F)c3)n3c2CCC3)CC(F)(F)C1 [Example 116, 7-(2-((3,3-difluoro-1-(methylcarbamoyl)cyclobutyl)amino)-2-oxoacetyl)-N-(3-(difluoromethyl)-4-fluorophenyl)-6-methyl-2,3-dihydro-1H-pyrrolizine-5-carboxamide] | 39.5 h |
| CNC(=O)C1(NC(=O)C(=O)c2c(C)c(C(=O)Nc3cccc(C(F)F)c3)n3c2CCC3)CC(F)(F)C1 [Example 115, 7-(2-((3,3-difluoro-1-(methylcarbamoyl)cyclobutyl)amino)-2-oxoacetyl)-N-(3-(difluoromethyl)phenyl)-6-methyl-2,3-dihydro-1H-pyrrolizine-5-carboxamide] | 39.5 h |
| CNC(=O)C1(NC(=O)C(=O)c2c(C)c(C(=O)Nc3ccc(F)c(F)c3)n3c2C[C@@H](F)C3)CC(F)(F)C1 [Example 49, (R)-7-(2-((3,3-difluoro-1-(methylcarbamoyl)cyclobutyl)amino)-2-oxoacetyl)-N-(3,4-difluorophenyl)-2-fluoro-6-methyl-2,3-dihydro-1H-pyrrolizine-5-carboxamide] | 39.5 h |
| CNC(=O)C1(NC(=O)C(=O)c2c(C)c(C(=O)Nc3ccc(F)cc3)n3c2CCC3)CC(F)(F)C1 [Example 47, 7-(2-((3,3-difluoro-1-(methylcarbamoyl)cyclobutyl)amino)-2-oxoacetyl)-N-(4-fluorophenyl)-6-methyl-2,3-dihydro-1H-pyrrolizine-5-carboxamide] | 39.5 h |
| Cc1c(C(=O)C(=O)NC2(c3c[nH]nn3)CC2)c2n(c1C(=O)Nc1ccnc(C(F)F)c1)[C@@H]1C[C@@H]1C2 [Example 56, (1aR,6aR)-5-(2-((1-(1H-1,2,3-triazol-4-yl)cyclopropyl)amino)-2-oxoacetyl)-N-(2-(difluoromethyl)pyridin-4-yl)-4-methyl-1,1a,6,6a-tetrahydrocyclopropa[b]pyrrolizine-3-carboxamide] | 39.5 h |
| Cc1c(C(=O)C(=O)NC2(c3c[nH]nn3)CC2)c2n(c1C(=O)Nc1ccc(F)cc1)CCC2 [Example 70, 7-(2-((1-(1H-1,2,3-triazol-4-yl)cyclopropyl)amino)-2-oxoacetyl)-N-(4-fluorophenyl)-6-methyl-2,3-dihydro-1H-pyrrolizine-5-carboxamide] | 39.5 h |
| Cc1c(C(=O)C(=O)N[C@H](C)C(F)(F)F)c2n(c1C(=O)Nc1ccc(F)c(Cl)c1)C(C)CC2 (single isomer, unassigned) [Example 25] | 9.1 h |
| CNC(=O)C1(NC(=O)C(=O)c2c(C)c(C(=O)Nc3ccc(F)c(F)c3)n3c2CCC3)CC(F)(F)C1 [Example 44, 7-(2-((3,3-difluoro-1-(methylcarbamoyl)cyclobutyl)amino)-2-oxoacetyl)-N-(3,4-difluorophenyl)-6-methyl-2,3-dihydro-1H-pyrrolizine-5-carboxamide] | 39.5 h |
